Key:
human motilin receptor = target: T1, human motilin receptor (Homo sapiens, UniProt O43193); assay: Competitive radioligand binding assay (motilin receptor), Method B1; settings: [125I]-motilin competition, CHO cell membranes
T1 construct: purchased PerkinElmer (SignalScreen) 6110544; host or cells: CHO cells, stably transfected (membranes)
Experimental: (§1) The compounds of the present invention were evaluated for their ability to interact at the human motilin receptor and the human ghrelin receptor utilizing competitive radioligand binding assays as described in Method B1 and B2, respectively. Further characterization of the interaction can be performed utilizing the functional assays described in Methods B3 and B4 for the motilin and ghrelin receptors, respectively. All of these methods can be conducted, if so desired, in a high throughput manner to permit the simultaneous evaluation of many compounds.
Competitive Radioligand Binding Assay (Motilin Receptor)
• Membranes were prepared from CHO cells stably transfected with the human motilin receptor and utilized at a quantity of 1.5 μg/assay point. [PerkinElmer® SignalScreen® Product #6110544, Perkin Elmer, Inc., Wellesley, Mass.] • [^125I]-Motilin (PerkinElmer®, #NEX-378); final concentration: 0.04-0.06 nM • Motilin (Bachem®, #H-4385, Bachem AG Corporation, Bubendorf, Switzerland); final concentration: 1 μM • Multiscreen® Harvest plates-GF/B (Millipore®, #MAHFB1H60, Millipore Corporation, Billerica, Mass.) • Deep-well polypropylene titer plate (Beckman Coulter®, #267006, Beckman Coulter, Inc., Fullerton, Calif.) • TopSeal-A (PerkinElmer®, #6005185) • Bottom seal (Millipore®, #MATAH0P00) • MicroScint™-0 (PerkinElmer®, #6013611) • Binding Buffer: 50 mM Tris-HCl (pH 7.4), 10 mM MgCl2, 1 mM EDTA, 0.1% BSA
Assay Volumes: • 150 μl of membranes diluted in binding buffer • 10 μl of compound diluted in binding buffer • 10 μl of radioligand ([^125I]-Motilin) diluted in binding buffer
(§2) Compounds were provided frozen on dry ice at a stock concentration of 10 mM diluted in 100% DMSO and stored at −20° C. until the day of testing. On the test day, compounds were allowed to thaw at room temperature and than diluted in assay buffer according to the desired test concentrations. Under these conditions, the maximum final DMSO concentration in the assay was 0.5%.
In deep-well plates, diluted cell membranes (1.5 μg/mL) are combined with 10 μl of either binding buffer (total binding, N=5), 1 μM motilin (non-specific binding, N=3) or the appropriate concentration of test compound. The reaction is initiated by addition of 10 μl of [^125I]-motilin (final conc. 0.04-0.06 nM) to each well. Plates are sealed with TopSeal-A, vortexed gently and incubated at room temperature for 2 hours. The reaction is arrested by filtering samples through pre-soaked (0.3% polyethyleneimine, 2 h) Multiscreen® Harvest plates using a Tomtec ® Harvester (TomTec, Inc., Hamden Conn.), washed 9 times with 500 μl of cold 50 mM Tris-HCl (pH 7.4), and than plates are air-dried in a fumehood for 30 minutes. A bottom seal is applied to the plates prior to the addition of 25 μl of MicroScint™-0 to each well. Plates are than sealed with TopSeal-A and counted for 30 sec per well on a TopCount® Microplate Scintillation and Luminescence Counter (PerkinElmer®) where results are expressed as counts per minute (cpm).
Data are analyzed by GraphPad Prism® (GraphPad Software, Inc., San Diego, Calif.) using a variable slope non-linear regression analysis.
[formula] where total and non-specific binding represent the cpm obtained in the absence or presence of 1 μM motilin, respectively.

[1] = target: T2, human ghrelin receptor (hGHS-R1a) (Homo sapiens, UniProt Q92847); assay: Competitive radioligand binding assay (ghrelin receptor), Method B2; settings: [125I]-ghrelin competition, HEK-293 cell membranes
T2 construct: purchased PerkinElmer BioSignal RBHGHSM, lot#1887; host or cells: HEK-293 cells, stably transfected (membranes GHS-R/HEK 293)
Experimental: as §1
Competitive Radioligand Binding Assay (Ghrelin Receptor)
The competitive binding assay at the human growth hormone secretagogue receptor (hGHS-R1a) was carried out analogously to assays described in the literature. (Bednarek M A et al. (2000), Structure-function studies on the new growth hormone-releasing peptide ghrelin: minimal sequence of ghrelin necessary for activation of growth hormone secretagogue receptor 1a; J Med Chem 43:4370-4376. Palucki B L et al. (2001), Spiro(indoline-3,4′-piperidine) growth hormone secretagogues as ghrelin mimetics; Bioorg Med Chem Lett 11:1955-1957.)
• Membranes (GHS-R/HEK 293) were prepared from HEK-293 cells stably transfected with the human ghrelin receptor (hGHS-R1a).
as §2, with “−80°” for “−20°”, “rt overnight” for “room temperature”, “then” for “than”, “maximal” for “maximum”, “0.1%.” for “0.5%.”
In deep-well plates, 220 μl of diluted cell membranes (final concentration: 0.71 μg/well) were combined with 40 μl of either binding buffer (total binding, N=5), 1 μM ghrelin (non-specific binding, N=3) or the appropriate concentration of test compound (N=2 for each test concentration). […] Plates were sealed with TopSeal-A, vortexed gently and incubated at rt for 30 min. The reaction was arrested by filtering samples through Multiscreen® Harvest plates (pre-soaked in 0.5% polyethyleneimine) using a Tomtec® Harvester, washed 9 times with 500 μL of cold 50 mM Tris-HCl (pH 7.4, 4° C.), and then plates were air-dried in a fumehood for 30 min. A bottom seal was applied to the plates prior to the addition of 25 μl of MicroScint™-0 to each well. Plates were than sealed with TopSeal-A and counted for 30 sec per well on a TopCount® Microplate Scintillation and Luminescence Counter (PerkinElmer®) using a count delay of 60 sec. Results were expressed as counts per minute (cpm).
Data were analyzed by GraphPad Prism® (GraphPad Software, Inc., San Diego, Calif.) using a variable slope non-linear regression analysis.

T2 sequence (Q92847 whole entry): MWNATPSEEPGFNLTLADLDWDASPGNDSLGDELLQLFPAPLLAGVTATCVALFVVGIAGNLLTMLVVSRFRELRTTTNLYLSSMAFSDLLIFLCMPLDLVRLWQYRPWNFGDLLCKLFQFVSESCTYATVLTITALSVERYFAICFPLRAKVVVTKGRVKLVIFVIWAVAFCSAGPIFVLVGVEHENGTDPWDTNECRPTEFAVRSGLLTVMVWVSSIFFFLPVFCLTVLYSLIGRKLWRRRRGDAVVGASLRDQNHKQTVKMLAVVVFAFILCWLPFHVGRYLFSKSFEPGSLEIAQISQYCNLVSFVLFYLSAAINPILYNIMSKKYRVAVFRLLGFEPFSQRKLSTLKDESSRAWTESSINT
T1 sequence (O43193 whole entry): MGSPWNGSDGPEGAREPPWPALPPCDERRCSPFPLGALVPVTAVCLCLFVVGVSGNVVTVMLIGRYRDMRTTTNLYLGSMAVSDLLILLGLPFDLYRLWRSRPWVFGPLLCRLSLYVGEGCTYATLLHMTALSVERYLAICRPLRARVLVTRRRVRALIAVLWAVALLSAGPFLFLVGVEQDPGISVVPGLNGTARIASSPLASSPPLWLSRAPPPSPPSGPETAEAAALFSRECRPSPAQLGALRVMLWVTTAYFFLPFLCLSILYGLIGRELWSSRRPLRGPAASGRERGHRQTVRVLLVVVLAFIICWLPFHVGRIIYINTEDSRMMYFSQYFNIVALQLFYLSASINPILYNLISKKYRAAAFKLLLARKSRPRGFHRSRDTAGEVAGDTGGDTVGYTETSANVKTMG

Question: How did the Ki (human motilin receptor) turn out when `CCC[C@@H]1/C=C/[C@@H](C(C)C)NC(=O)[C@@H](Cc2cccc(Cl)c2)NCCOc2ccccc2CCCNC1=O` [Compound 104] was run?
Answer: Its Ki is 1000 to 10000 nM.

Question: For `CC(C)[C@H]1CC[C@@H](Cc2cccc(Cl)c2)NCCOc2ccccc2CCCNC(=O)[C@H](CNC(=N)N)NC1=O` [Compound 101], which Ki (human motilin receptor) is on record?
Answer: Its Ki is 10 to 100 nM.

Question: `C[C@@H]1C(=O)N[C@H](Cc2ccc(F)cc2)C(=O)NCCOc2cccc(c2)OCCN[C@@H](C2CC2)C(=O)N1C` [Compound 149] was tested. Which Ki [1] did it give?
Answer: The Ki was 100 to 1000 nM.

Question: For `CN1CC(=O)N[C@H](Cc2ccccc2)C(=O)NCCCc2ccccc2OCCN[C@@H](Cc2ccccc2)C1=O` [Compound 128], which Ki [1] is on record?
Answer: Its Ki is 100 to 1000 nM.

Question: With `CCC[C@H]1C(=O)N(C)[C@H](C)C(=O)N[C@H](Cc2ccccc2)C(=O)NCCCc2ccccc2OCCN1C` [Compound 167] as the molecule, how does the Ki [1] read?
Answer: The Ki was 100 to 1000 nM.

Question: With `CC(C)C[C@H]1C(=O)NCCCc2ccccc2OCCN[C@H](Cc2ccc(O)cc2)C(=O)N[C@H](C(C)C)C(=O)N1C` [Compound 116] as the molecule, how does the Ki (human motilin receptor) read?
Answer: The Ki was 100 to 1000 nM.

Question: Which Ki [1] does the source give for `CCC(C)[C@@H]1NCCOc2ccccc2CCCNC(=O)[C@@H](Cc2ccccc2)NC(=O)[C@@H](C(C)CC)N(C)C1=O` (stereo partly shown) [Compound 136] here?
Answer: The Ki was 1000 to 10000 nM.

Question: For `CCC(C)[C@@H]1NCCOc2ccccc2CCCNC(=O)[C@@H](Cc2ccccc2)NC(=O)[C@H](C(C)C)N(C)C1=O` (stereo partly shown) [Compound 131], which Ki [1] is on record?
Answer: The Ki was 100 to 1000 nM.

Question: Which Ki (human motilin receptor) does the source give for `CCC[C@@H]1NC(=O)[C@@H](C(C)C)/C=C/[C@@H](Cc2ccc(OC)cc2)NCCOc2ccccc2CCCNC1=O` [Compound 105] here?
Answer: The Ki was 1000 to 10000 nM.

Question: How did the Ki (human motilin receptor) turn out when `CCC[C@@H]1NC(=O)C(C(C)C)CC[C@@H](Cc2ccc(OC)cc2)NCCOc2ccccc2CCCNC1=O` (stereo partly shown) [Compound 110] was run?
Answer: The Ki was 1000 to 10000 nM.

Question: For `CCC[C@@H]1CC[C@@H](C(C)C)NC(=O)[C@@H](Cc2cccc(Cl)c2)NCCOc2ccccc2CCCNC1=O` [Compound 103], which Ki (human motilin receptor) is on record?
Answer: The Ki was 1000 to 10000 nM.

Question: How did the Ki (human motilin receptor) turn out when `CCC[C@@H]1NC(=O)[C@@H](C(C)C)NC(=O)[C@@H](Cc2ccc(O)cc2)NCCOc2ccccc2CCCOC1=O` [Compound 115] was run?
Answer: Its Ki is 1000 to 10000 nM.

Question: With `CCC[C@@H]1NC(=O)C(C(C)C)OC(=O)[C@@H](Cc2ccc(OC)cc2)NCCOc2ccccc2CCCNC1=O` (stereo partly shown) [Compound 112] as the molecule, how does the Ki (human motilin receptor) read?
Answer: Its Ki is 100 to 1000 nM.

Question: For `CCC[C@@H]1NC(=O)[C@@H](C(C)C)CC[C@@H](Cc2ccc(OC)cc2)NCCOc2ccccc2CCCNC1=O` [Compound 109], which Ki (human motilin receptor) is on record?
Answer: Its Ki is 100 to 1000 nM.

Question: For `CCC(C)[C@@H]1NCCOc2ccccc2/C=C/CNC(=O)N(Cc2ccccc2)NC(=O)[C@@H](C)N(C)C1=O` (stereo partly shown) [Compound 165], which Ki [1] is on record?
Answer: The Ki was 10 to 100 nM.

Question: `CN1CC(=O)N[C@H](Cc2ccccc2)C(=O)NCCCc2ccccc2OCCN[C@@H](CCCCN)C1=O` [Compound 127] was tested. Which Ki [1] did it give?
Answer: Its Ki is 1000 to 10000 nM.

Question: `CCC[C@@H]1NC(=O)[C@@H](C(C)C)OC(=O)[C@@H](Cc2cccc3ccccc23)NCCOc2ccccc2CCCNC1=O` [Compound 111] was tested. Which Ki (human motilin receptor) did it give?
Answer: The Ki was 100 to 1000 nM.

Question: How did the Ki [1] turn out when `CCC[C@@H]1NCc2cccc(c2)CNC(=O)[C@@H](Cc2ccccc2)NC(=O)CN(C)C1=O` [Compound 158] was run?
Answer: Its Ki is 1000 to 10000 nM.

Question: How did the Ki [1] turn out when `CCC(C)[C@@H]1NCCOc2ccccc2CCCNC(=O)[C@@H](Cc2ccccc2)NC(=O)[C@H](C(C)CC)N(C)C1=O` (stereo partly shown) [Compound 138] was run?
Answer: Its Ki is 100 to 1000 nM.

Question: For `C[C@@H]1NCCOc2ccccc2CCCNC(=O)[C@@H](Cc2ccccc2)NC(=O)CN(C)C1=O` [Compound 124], which Ki [1] is on record?
Answer: Its Ki is 1000 to 10000 nM.

Question: How did the Ki (human motilin receptor) turn out when `CCC[C@@H]1NC(=O)[C@@H](C(C)C)OC(=O)[C@@H](Cc2ccc(O)cc2)NCCOc2ccccc2CCCNC1=O` [Compound 119] was run?
Answer: Its Ki is 100 to 1000 nM.

Question: With `C[C@@H]1C(=O)N[C@H](Cc2ccc(F)cc2)C(=O)NCCOCCOCCN[C@@H](C2CC2)C(=O)N1C` [Compound 140] as the molecule, how does the Ki [1] read?
Answer: Its Ki is 1000 to 10000 nM.

Source: patent US7550431B2, “Spatially-defined macrocycles incorporating peptide bond surrogates” (Tranzyme Pharma Inc., priority 2003, dated 2009)
